Laboratory results published in ChEMBL document CHEMBL1201862, “PubChem BioAssay data set” (2004).
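Briefly, cells in 96-well plates were exposed to five compound concentrations for 48 h, and endpoints were estimated by linear interpolation. GI50 is the concentration that inhibits growth by half.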 Active and inactive are the calls of the source. Rule as the data show it: active = GI50 up to about 1.1 µM and inactive = higher.

Experiments:
Assay in all cases: NCI-60 cell line screen, 48 h
HCC 2998 = test system: HCC 2998
UO-31 = test system: UO-31
NCI/ADR-RES = test system: NCI/ADR-RES
786-0 = test system: 786-0
MCF7 = test system: MCF7
HOP-62 = test system: HOP-62
NCI-H522 = test system: NCI-H522
T47D = test system: T47D
Malme-3M = test system: Malme-3M
UACC-257 = test system: UACC-257
BT-549 = test system: BT-549
SF-268 = test system: SF-268
HOP-92 = test system: HOP-92
OVCAR-5 = test system: OVCAR-5
OVCAR-8 = test system: OVCAR-8
CCRF-CEM = test system: CCRF-CEM
NCI-H23 = test system: NCI-H23
SK-OV-3 = test system: SK-OV-3
TK-10 = test system: TK-10
COLO 205 = test system: COLO 205
NCI-H226 = test system: NCI-H226
OVCAR-4 = test system: OVCAR-4
A549 = test system: A549
KM12 = test system: KM12
SNB-19 = test system: SNB-19
OVCAR-3 = test system: OVCAR-3
HL-60 = test system: HL-60
SN12C = test system: SN12C
HCT-15 = test system: HCT-15
DU-145 = test system: DU-145
Hs-578T = test system: Hs-578T
IGROV-1 = test system: IGROV-1
LOX IMVI = test system: LOX IMVI
MDA-MB-231 = test system: MDA-MB-231
U-251 = test system: U-251
SK-MEL-28 = test system: SK-MEL-28
SF-539 = test system: SF-539
SR = test system: SR
SNB-75 = test system: SNB-75
M14 = test system: M14
SF-295 = test system: SF-295
PC-3 = test system: PC-3
MDA-N = test system: MDA-N
SK-MEL-2 = test system: SK-MEL-2
HT-29 = test system: HT-29
UACC-62 = test system: UACC-62
RXF 393 = test system: RXF 393
ACHN = test system: ACHN
SW-620 = test system: SW-620
HCT-116 = test system: HCT-116
MDA-MB-435 = test system: MDA-MB-435
CAKI-1 = test system: CAKI-1
RPMI-8226 = test system: RPMI-8226
MOLT-4 = test system: MOLT-4
EKVX = test system: EKVX

Cc1ccc(/C=C2\N=C(N3CCOCC3)NC2=O)cc1
GI50 (HCC 2998): > 100 µM (inactive)
GI50 (UO-31): > 100 µM (inactive)
GI50 (NCI/ADR-RES): > 100 µM (inactive)
GI50 (786-0): > 100 µM (inactive)
GI50 (MCF7): > 100 µM (inactive)
GI50 (HOP-62): 77.6 µM (inactive)
GI50 (NCI-H522): > 100 µM (inactive)
GI50 (T47D): > 100 µM (inactive)
GI50 (Malme-3M): > 100 µM (inactive)
GI50 (UACC-257): > 100 µM (inactive)
GI50 (BT-549): > 100 µM (inactive)
GI50 (SF-268): > 100 µM (inactive)
GI50 (HOP-92): > 100 µM (inactive)
GI50 (OVCAR-5): > 100 µM (inactive)
GI50 (OVCAR-8): > 100 µM (inactive)
GI50 (CCRF-CEM): > 100 µM (inactive)
GI50 (NCI-H23): > 100 µM (inactive)
GI50 (SK-OV-3): > 100 µM (inactive)
GI50 (TK-10): > 100 µM (inactive)
GI50 (COLO 205): > 100 µM (inactive)
GI50 (NCI-H226): > 100 µM (inactive)
GI50 (OVCAR-4): > 100 µM (inactive)
GI50 (A549): > 100 µM (inactive)
GI50 (KM12): > 100 µM (inactive)
GI50 (SNB-19): > 100 µM (inactive)
GI50 (OVCAR-3): > 100 µM (inactive)
GI50 (HL-60): > 100 µM (inactive)
GI50 (SN12C): > 100 µM (inactive)
GI50 (HCT-15): > 100 µM
GI50 (DU-145): > 100 µM (inactive)
GI50 (Hs-578T): > 100 µM (inactive)
GI50 (IGROV-1): > 100 µM (inactive)
GI50 (LOX IMVI): > 100 µM (inactive)
GI50 (MDA-MB-231): > 100 µM (inactive)
GI50 (U-251): > 100 µM (inactive)
GI50 (SK-MEL-28): > 100 µM (inactive)
GI50 (SF-539): > 100 µM (inactive)
GI50 (SR): > 100 µM (inactive)
GI50 (SNB-75): > 100 µM (inactive)
GI50 (M14): > 100 µM (inactive)
GI50 (SF-295): > 100 µM (inactive)
GI50 (PC-3): > 100 µM (inactive)
GI50 (MDA-N): > 100 µM (inactive)
GI50 (SK-MEL-2): > 100 µM (inactive)
GI50 (HT-29): > 100 µM (inactive)
GI50 (UACC-62): > 100 µM (inactive)
GI50 (RXF 393): > 100 µM (inactive)
GI50 (ACHN): > 100 µM (inactive)
GI50 (SW-620): > 100 µM (inactive)
GI50 (HCT-116): > 100 µM (inactive)
GI50 (MDA-MB-435): > 100 µM (inactive)
GI50 (CAKI-1): > 100 µM (inactive)
GI50 (RPMI-8226): > 100 µM (inactive)
GI50 (MOLT-4): > 100 µM (inactive)
GI50 (EKVX): > 100 µM (inactive)
